Data on 18 compounds can be found in patent US10689414B2 (Agios Pharmaceuticals, Inc., priority 2013, dated 2020).

For the first experiment, the system named is U87MG cells. Nature of the experiment: Cellular assay, inhibition of 2-HG production in U87MG cells. Format: cell-based. The following applies: Homo sapiens, U-87 MG, 48 h. Summed up:
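HT1080 or U87MG cells (U87MG kept with 500 ug/mL G418) seeded at 5000 cells/well and treated with compound at 0.2% final DMSO. Incubated 48 h at 37 °C. 2-HG inhibition determined by LC-MS. Viability read by CellTiter-Glo luminescence at 72 h post-dose.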
By IC50 is commonly meant the point on the concentration scale where inhibition reaches its midpoint. A higher IC50 goes with a need for much substance. In turn, `N#Cc1cc(F)cc(N(C(=O)[C@@H]2CCC(=O)N2c2cc(C#N)ccn2)[C@H](C(=O)NC2CC(F)(F)C2)c2ccccc2Cl)c1` [Compound 177, (S)—N—((S)-1-(2-Chlorophenyl)-2-(3,3-difluorocyclobutylamino)-2-oxoethyl)-N-(3-cyano-5-fluorophenyl)-1-(4-cyanopyridin-2-yl)-5-oxopyrrolidine-2-carboxamide] displayed an IC50 of less than 100 nM.
`CN(C)c1cccc(N(C(=O)[C@@H]2CCC(=O)N2c2cc(C#N)ccn2)[C@H](C(=O)NC2CC(F)(F)C2)c2ccccc2Cl)c1` [Compound 161, (S)—N—((S)-1-(2-Chlorophenyl)-2-(3,3-difluorocyclobutylamino)-2-oxoethyl)-1-(4-cyanopyri-din-2-yl)-N-(3-(dimethylamino)phenyl)-5-oxopyrrolidine-2-carboxamide]: the IC50 is less than 100 nM.
On the same count and under the same terms, then `N#Cc1ccnc(N2C(=O)[C@H](F)C[C@H]2C(=O)N(c2cccc(F)c2)[C@H](C(=O)NC2CCC(F)(F)CC2)c2ccccc2Cl)c1` [Compound 151, (2S,4R)—N—((S)-1-(2-Chlorophenyl)-2-((4,4-difluorocyclohexyl)amino)-2-oxoethyl)-1-(4-cyanopyridin-2-yl)-4-fluoro-N-(3-fluorophenyl)-5-oxopyrrolidine-2-carboxamide], with less than 100 nM; and `N#Cc1ccnc(N2C(=O)CC[C@H]2C(=O)N(c2cc(F)cc(F)c2)[C@H](C(=O)NC2CC(F)(F)C2)c2ccccc2)c1` [Compound 210, (S)-1-(4-Cyanopyridin-2-yl)-N—((S)-2-(3,3-difluorocyclobutylamino)-2-oxo-1-phenylethyl)-N-(3,5-difluorophenyl)-5-oxopyrrolidine-2-carboxamide], with less than 100 nM.
`CS(=O)(=O)c1cccc(N(C(=O)[C@@H]2CCC(=O)N2c2nccc(C#N)n2)[C@H](C(=O)NC2CCC(F)(F)CC2)c2ccccc2Cl)c1` [Compound 103, (S)—N—((S)-1-(2C)-2-((4,4-difluorocyclohexyl)amino)-2-oxoethyl)-1-(4-cyanopyrimidin-2-yl)-N-(3-(methylsulfonyl)phenyl)-5-oxopyrrolidine-2-carboxamide] had an IC50 of 100 to 500 nM.
The same measure, in the same setting: then `N#Cc1ccnc(N2C(=O)CC[C@H]2C(=O)N(c2cncc(F)c2)[C@H](C(=O)NC2CC(F)(F)C2)c2ccccc2)c1` [Compound 147, (S)-1-(4-Cyanopyridin-2-yl)-N—((S)-2-((3,3-difluorocyclobutyl)amino)-2-oxo-1-phenylethyl)-N-(5-fluoropyridin-3-yl)-5-oxopyrrolidine-2-carboxamide], with less than 100 nM; and `O=C(NC1CCC(F)(F)CC1)[C@H](c1ccccc1Cl)N(C(=O)[C@@H]1CCC(=O)N1c1ncccn1)c1cccc(F)c1` [Compound 4, (S)—N—((S)-1-(2-chlorophenyl)-2-((4,4-difluorocyclohexyl)amino)-2-oxoethyl)-N-(3-fluoro-phenyl)-5-oxo-1-(pyrimidin-2-yl)pyrrolidine-2-carboxamide], with less than 100 nM.
`N#Cc1ccnc(N2C(=O)[C@H](O)C[C@H]2C(=O)N(c2cccc(F)c2)[C@H](C(=O)NC2CC(F)(F)C2)c2ccccc2Cl)c1` [Compound 113, (2S,4R)—N—((S)-1-(2-Chlorophenyl)-2-(3,3-difluorocyclobutylamino)-2-oxoethyl)-1-(4-cyano-pyridin-2-yl)-N-(3-fluorophenyl)-4-hydroxy-5-oxopyrrolidine-2-carboxamide]: the IC50 was less than 100 nM.
For the compound `O=C(NC1CC(F)(F)C1)[C@H](c1ccccc1Cl)N(C(=O)[C@@H]1CCC(=O)N1c1nccs1)c1cccc(F)c1` [Compound 14], the IC50 lay within 100 to 500 nM.
Turning to `N#Cc1ccnc(N2C(=O)CC[C@H]2C(=O)N(c2cccc(OC(F)F)c2)[C@H](C(=O)NC2CC(F)(F)C2)c2ccccc2Cl)n1` [Compound 194, (S)—N—((S)-1-(2-Chlorophenyl)-2-((3,3-difluorocyclobutyl)amino)-2-oxoethyl)-1-(4-cyanopyrimidin-2-yl)-N-(3-(difluoromethoxy)phenyl)-5-oxopyrrolidine-2-carboxamide], the IC50 was less than 100 nM.
Take `N#Cc1ccnc(N2C(=O)CC[C@H]2C(=O)N(c2ccccc2F)[C@H](C(=O)NC2CC(F)(F)C2)c2ccccc2Cl)c1` [Compound 187, (S)—N—((S)-1-(2-Chlorophenyl)-2-((3,3-difluorocyclobutyl)amino)-2-oxoethyl)-1-(4-cyanopyridin-2-yl)-N-(2-fluorophenyl)-5-oxopyrrolidine-2-carboxamide]: the IC50 is less than 100 nM.
`N#Cc1ccnc(N2C(=O)OCC[C@H]2C(=O)N(c2cc(F)cc(F)c2)[C@H](C(=O)NC2CCC(F)(F)CC2)c2ccccc2Cl)c1` [Compound 139, (S)—N—((S)-1-(2-Chlorophenyl)-2-((4,4-difluorocyclohexyl)amino)-2-oxoethyl)-3-(4-cyanopyridin-2-yl)-N-(3,5-difluorophenyl)-2-oxo-1,3-oxazinane-4-carboxamide] gave an IC50 of less than 100 nM.
On the same count and under the same terms, as for `N#Cc1ccnc(N2C(=O)[C@@H](O)C[C@H]2C(=O)N(c2cccc(F)c2)[C@H](C(=O)NC2CCC(F)(F)CC2)c2ccccc2Cl)c1` [Compound 172, (2S,4S)—N—((S)-1-(2-Chlorophenyl)-2-((4,4-difluorocyclohexyl)amino)-2-oxoethyl)-1-(4-cyano-pyridin-2-yl)-N-(3-fluorophenyl)-4-hydroxy-5-oxopyrrolidine-2-carboxamide], the figure is less than 100 nM; as for `O=C(NC1CC(F)(F)C1)[C@H](c1ccccc1Cl)N(C(=O)[C@@H]1CCC(=O)N1c1cscn1)c1cccc(F)c1` [Compound 43, (S)—N—((S)-1-(2-Chlorophenyl)-2-(3,3-difluorocyclobutylamino)-2-oxoethyl)-N-(3-fluorophenyl)-5-oxo-1-(thiazol-4-yl)pyrrolidine-2-carboxamide], less than 100 nM.
`N#Cc1ccnc(N2C(=O)CC[C@H]2C(=O)N(c2cc(F)cc(F)c2)[C@H](C(=O)NC2CC(F)(F)C2)c2c(Cl)cccc2Cl)c1` [Compound 199, (S)-1-(4-Cyanopyridin-2-yl)-N—((S)-1-(2,6-dichlorophenyl)-2-((3,3-difluorocyclobutyl)amino)-2-oxoethyl)-N-(3,5-difluorophenyl)-5-oxopyrrolidine-2-carboxamide] returned an IC50 of less than 100 nM.
The compound `N#Cc1ccnc(N2C(=O)CC[C@H]2C(=O)N(c2cccc(OCCO)c2)[C@H](C(=O)NC2CC(F)(F)C2)c2ccccc2Cl)c1` [Compound 130, (S)—N—((S)-1-(2-Chlorophenyl)-2-((3,3-difluorocyclobutyl)amino)-2-oxoethyl)-1-(4-cyanopyridin-2-yl)-N-(3-(2-hydroxyethoxy)phenyl)-5-oxopyrrolidine-2-carboxamide] displayed an IC50 of less than 100 nM.
The compound `O=C(NC1CC(F)(F)C1)[C@H](c1ccccc1Cl)N(C(=O)[C@@H]1CCC(=O)N1c1ncccn1)c1cc(F)cc(F)c1` [Compound 70, (S)—N—((S)-1-(2-Chlorophenyl)-2-((3,3-difluorocyclobutyl)amino)-2-oxoethyl)-N-(3,5-difluoro-phenyl)-5-oxo-1-(pyrimidin-2-yl)pyrrolidine-2-carboxamide] returned a 50% inhibitory concentration (IC50) of less than 100 nM.

Staying with this experiment, now noted: inhibition of 2-HG production, U87MG cells, 48 hours.
“(S)—N—((S)-1-(2-Chlorophenyl)-2-((4,4-difluorocyclohexyl)amino)-2-oxoethyl)-1-(4-cyanopyridin-2-yl)-N-(1H-indazol-6-yl)-5-oxopyrrolidine-2-carboxamide [Compound 136]”: the IC50 was less than 100 nM.
